Assay results published in PMC4945764, “Effect of flecainide derivatives on sarcoplasmic reticulum calcium release suggests a lack of direct action on the cardiac ryanodine receptor” (British Journal of Pharmacology, 2016).

Columns and labels:
[1] = molecular target: T1, cardiac ryanodine receptor (RyR2) (Homo sapiens, UniProt Q92736); test: single-channel recording of purified hRyR2 in planar lipid bilayers; association and dissociation rates of block; format: biochemical
T1 construct: recombinant eGFP-hRyR2, purified from HEK293 cells

Nav1.5 channel [2] = molecular target: T2, Nav1.5 channel (Homo sapiens, UniProt Q14524); test: INa recording, use-dependent block at […] Hz ([…] NU-FL); format: cell-based
T2 construct: gene SCN5A; recombinant Nav1.5 in HEK293 (H-Flp/Nav1.5) cells

Nav1.5 channel [3] = molecular target: T2, Nav1.5 channel; test: INa recording, use-dependent block at […] Hz ([…] QX-FL); format: cell-based
[4] = molecular target: T1, cardiac ryanodine receptor (RyR2); test: single-channel recording of purified hRyR2 in planar lipid bilayers, +[…] mV, cytosolic to luminal K+ current; format: biochemical

T1 sequence (Q92736 whole entry): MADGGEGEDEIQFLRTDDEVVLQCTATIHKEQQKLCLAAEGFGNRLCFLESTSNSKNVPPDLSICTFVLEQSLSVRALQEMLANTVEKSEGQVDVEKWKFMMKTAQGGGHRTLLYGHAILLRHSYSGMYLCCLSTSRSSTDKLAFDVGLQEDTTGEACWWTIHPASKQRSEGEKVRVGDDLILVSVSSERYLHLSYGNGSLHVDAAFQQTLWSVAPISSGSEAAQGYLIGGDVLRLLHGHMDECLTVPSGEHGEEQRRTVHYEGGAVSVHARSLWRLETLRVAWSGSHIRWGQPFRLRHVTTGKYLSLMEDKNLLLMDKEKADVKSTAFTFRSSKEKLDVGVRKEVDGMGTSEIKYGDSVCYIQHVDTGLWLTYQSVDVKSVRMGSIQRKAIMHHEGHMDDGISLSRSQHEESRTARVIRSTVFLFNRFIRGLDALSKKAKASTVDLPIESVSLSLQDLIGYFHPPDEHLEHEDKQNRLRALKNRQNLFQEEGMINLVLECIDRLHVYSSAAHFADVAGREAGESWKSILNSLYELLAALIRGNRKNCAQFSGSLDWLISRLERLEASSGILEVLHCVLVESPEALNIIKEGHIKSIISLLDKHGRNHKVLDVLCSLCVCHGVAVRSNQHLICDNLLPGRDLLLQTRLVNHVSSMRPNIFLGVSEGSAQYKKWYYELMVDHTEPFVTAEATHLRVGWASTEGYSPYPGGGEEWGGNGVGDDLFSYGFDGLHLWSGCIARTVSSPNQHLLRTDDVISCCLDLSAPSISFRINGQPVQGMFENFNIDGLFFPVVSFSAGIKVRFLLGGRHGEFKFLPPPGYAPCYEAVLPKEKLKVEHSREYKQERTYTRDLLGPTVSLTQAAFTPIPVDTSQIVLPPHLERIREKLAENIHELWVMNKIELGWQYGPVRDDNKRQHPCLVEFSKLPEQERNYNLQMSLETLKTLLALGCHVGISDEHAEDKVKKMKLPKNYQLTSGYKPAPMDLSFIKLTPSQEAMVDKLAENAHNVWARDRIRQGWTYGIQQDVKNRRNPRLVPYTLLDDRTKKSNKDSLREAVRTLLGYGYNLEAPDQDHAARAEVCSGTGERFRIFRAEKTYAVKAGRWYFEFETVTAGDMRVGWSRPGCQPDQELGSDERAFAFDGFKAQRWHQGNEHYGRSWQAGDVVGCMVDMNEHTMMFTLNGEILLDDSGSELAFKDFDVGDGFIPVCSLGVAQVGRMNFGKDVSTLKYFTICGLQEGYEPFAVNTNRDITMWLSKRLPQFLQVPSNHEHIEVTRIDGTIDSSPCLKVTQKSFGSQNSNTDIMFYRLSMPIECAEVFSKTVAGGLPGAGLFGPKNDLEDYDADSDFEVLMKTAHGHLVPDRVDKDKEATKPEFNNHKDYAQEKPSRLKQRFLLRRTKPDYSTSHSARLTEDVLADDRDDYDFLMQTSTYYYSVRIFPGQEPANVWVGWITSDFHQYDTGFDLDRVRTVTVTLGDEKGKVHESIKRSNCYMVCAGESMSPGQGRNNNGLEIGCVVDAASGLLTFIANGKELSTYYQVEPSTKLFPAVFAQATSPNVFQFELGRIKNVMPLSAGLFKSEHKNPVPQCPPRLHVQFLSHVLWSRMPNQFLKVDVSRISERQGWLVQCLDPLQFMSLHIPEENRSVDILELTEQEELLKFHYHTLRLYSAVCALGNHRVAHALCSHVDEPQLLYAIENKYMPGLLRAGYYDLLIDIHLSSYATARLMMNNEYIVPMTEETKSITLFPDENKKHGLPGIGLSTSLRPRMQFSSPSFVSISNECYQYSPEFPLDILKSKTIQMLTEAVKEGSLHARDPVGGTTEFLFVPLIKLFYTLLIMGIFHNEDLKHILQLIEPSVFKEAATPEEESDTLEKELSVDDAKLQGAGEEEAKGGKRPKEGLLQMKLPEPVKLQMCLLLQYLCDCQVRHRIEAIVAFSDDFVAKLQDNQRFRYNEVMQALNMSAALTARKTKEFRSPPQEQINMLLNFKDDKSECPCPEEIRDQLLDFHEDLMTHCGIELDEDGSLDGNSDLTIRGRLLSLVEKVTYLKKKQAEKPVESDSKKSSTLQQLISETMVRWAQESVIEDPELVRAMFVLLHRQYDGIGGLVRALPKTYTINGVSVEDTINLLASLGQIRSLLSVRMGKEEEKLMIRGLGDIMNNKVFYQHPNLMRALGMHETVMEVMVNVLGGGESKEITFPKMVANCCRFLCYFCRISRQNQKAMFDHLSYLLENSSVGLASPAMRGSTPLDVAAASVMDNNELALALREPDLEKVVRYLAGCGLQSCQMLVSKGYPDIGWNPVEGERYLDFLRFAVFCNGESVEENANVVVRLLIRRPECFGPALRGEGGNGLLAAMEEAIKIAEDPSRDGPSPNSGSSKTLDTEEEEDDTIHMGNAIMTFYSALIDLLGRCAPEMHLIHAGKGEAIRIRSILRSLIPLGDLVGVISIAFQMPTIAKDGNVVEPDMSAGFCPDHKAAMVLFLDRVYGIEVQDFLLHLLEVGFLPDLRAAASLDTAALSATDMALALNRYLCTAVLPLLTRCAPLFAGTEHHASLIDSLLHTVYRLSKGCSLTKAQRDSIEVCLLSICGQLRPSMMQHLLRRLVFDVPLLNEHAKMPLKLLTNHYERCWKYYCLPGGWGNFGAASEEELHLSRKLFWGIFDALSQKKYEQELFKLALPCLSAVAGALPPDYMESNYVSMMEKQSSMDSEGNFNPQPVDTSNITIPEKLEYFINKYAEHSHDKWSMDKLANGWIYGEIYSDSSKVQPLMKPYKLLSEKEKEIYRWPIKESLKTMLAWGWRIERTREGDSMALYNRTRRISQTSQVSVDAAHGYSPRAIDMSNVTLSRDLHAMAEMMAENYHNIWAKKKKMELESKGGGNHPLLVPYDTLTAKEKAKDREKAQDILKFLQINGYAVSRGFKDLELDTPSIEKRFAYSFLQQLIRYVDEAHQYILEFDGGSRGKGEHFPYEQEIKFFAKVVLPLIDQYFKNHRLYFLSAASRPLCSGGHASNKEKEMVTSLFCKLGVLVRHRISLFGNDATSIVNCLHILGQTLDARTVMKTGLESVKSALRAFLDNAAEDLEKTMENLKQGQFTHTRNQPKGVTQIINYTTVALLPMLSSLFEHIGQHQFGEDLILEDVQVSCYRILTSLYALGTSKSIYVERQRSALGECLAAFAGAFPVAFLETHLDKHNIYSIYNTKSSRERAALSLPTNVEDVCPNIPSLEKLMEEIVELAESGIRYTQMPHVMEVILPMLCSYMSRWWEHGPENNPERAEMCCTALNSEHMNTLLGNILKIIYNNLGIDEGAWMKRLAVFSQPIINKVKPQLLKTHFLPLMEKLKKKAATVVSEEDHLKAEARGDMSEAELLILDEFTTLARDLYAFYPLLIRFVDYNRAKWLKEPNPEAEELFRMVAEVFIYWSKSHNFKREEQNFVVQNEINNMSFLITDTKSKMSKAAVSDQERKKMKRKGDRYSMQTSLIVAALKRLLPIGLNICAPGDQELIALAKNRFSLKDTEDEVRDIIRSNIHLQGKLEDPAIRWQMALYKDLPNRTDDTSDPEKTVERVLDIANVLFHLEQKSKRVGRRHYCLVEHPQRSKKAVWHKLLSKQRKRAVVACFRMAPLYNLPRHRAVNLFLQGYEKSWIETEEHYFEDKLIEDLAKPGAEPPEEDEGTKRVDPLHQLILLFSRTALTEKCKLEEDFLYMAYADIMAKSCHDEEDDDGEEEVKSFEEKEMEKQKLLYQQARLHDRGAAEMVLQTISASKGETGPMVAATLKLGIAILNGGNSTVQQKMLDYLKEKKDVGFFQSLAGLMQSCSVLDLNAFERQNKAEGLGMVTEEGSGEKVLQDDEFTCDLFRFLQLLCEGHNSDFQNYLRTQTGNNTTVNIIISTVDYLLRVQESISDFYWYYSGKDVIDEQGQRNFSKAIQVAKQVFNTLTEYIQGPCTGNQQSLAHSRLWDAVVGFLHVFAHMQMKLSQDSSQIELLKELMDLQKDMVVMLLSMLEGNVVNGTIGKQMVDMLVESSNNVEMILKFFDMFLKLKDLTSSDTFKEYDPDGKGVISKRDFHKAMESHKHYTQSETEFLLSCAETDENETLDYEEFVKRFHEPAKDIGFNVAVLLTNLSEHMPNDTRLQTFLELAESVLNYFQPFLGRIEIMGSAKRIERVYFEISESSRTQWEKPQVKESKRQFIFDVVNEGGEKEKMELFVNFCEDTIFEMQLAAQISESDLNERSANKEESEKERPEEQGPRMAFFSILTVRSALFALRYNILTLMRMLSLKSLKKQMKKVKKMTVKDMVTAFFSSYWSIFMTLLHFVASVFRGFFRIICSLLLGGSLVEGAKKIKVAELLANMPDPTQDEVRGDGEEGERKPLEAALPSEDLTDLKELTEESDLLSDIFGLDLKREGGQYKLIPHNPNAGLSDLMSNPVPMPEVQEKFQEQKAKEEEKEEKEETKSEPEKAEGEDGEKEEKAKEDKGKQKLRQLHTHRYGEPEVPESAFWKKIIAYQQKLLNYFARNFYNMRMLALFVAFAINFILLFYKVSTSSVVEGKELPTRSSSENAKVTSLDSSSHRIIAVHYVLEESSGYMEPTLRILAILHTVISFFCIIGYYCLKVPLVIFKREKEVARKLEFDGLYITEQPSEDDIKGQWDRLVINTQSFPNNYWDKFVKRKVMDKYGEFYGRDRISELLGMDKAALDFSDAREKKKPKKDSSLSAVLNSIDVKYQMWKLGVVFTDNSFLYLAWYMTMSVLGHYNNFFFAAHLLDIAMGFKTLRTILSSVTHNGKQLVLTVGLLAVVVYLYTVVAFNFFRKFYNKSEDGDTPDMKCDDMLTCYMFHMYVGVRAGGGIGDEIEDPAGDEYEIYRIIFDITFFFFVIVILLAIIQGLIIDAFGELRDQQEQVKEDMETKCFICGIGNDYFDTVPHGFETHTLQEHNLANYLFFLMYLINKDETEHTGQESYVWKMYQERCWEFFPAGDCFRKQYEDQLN

| Kd [4] [µM] | Compound | kon [1] [M⁻¹ s⁻¹] | INa recording, use-dependent block at 10 Hz (10 and 100 μM NU-FL) (Nav1.5 channel [2]) | INa recording, use-dependent block at 10 Hz (10 μM QX-FL) (Nav1.5 channel [3]) |
| --- | --- | --- | --- | --- |
| – | O=C(NCCN1CCOCC1)c1cc(OCC(F)(F)F)ccc1OCC(F)(F)F [NU-FL] | 6.2e+08 ± 5e+07 | Use‐dependent block (UDB) of voltage gated Na^+ channel current (INa) by flecainide analogues, NU‐FL and QX‐FL. | – |
| – | C[N+]1(C)CCCCC1CNC(=O)c1cc(OCC(F)(F)F)ccc1OCC(F)(F)F (centres unmarked) [QX-FL] | 9.1e+08 ± 3e+07 | – | Use‐dependent block (UDB) of voltage gated Na^+ channel current (INa) by flecainide analogues, NU‐FL and QX‐FL. |
| 13.1 ± 1.89 | O=C(NCC1CCCCN1)c1cc(OCC(F)(F)F)ccc1OCC(F)(F)F (centres unmarked) [flecainide] | – | – | – |
